Reference: patent US7371766B2, “Curcumin analogs with anti-tumor and anti-angiogenic properties” (Emory University, priority 1999, dated 2008)
Where two headings read alike, the source gives them in different places.

Key:
MDA-MB-435 = assay: Emory Laboratory Cell Screen, Neutral Red, MDA-MB-435; format: cell-based, human; conditions: Homo sapiens, MDA-MB-435, Breast Cancer, 72 hours, read-out: Median Growth Inhibitory Concentration (GI50)
Method: (§1) Human tumor and endothelial cell lines were treated for 72 hours with compounds at a minimum of four concentrations between 0.1 μM-40 μM. Neutral Red assay was used to calculate cell viability.

RPMI-7951 human melanoma = assay: Neutral Red Assay, cell viability, RPMI-7951; conditions: Homo sapiens
[1] = tested on: Tissue Factor (TF) production by human prostate cancer cell line PC-3; assay: TF ELISA, PC-3; format: cell-based; conditions: 20 μM
Method: (§2) Cells were treated with 1% Triton X-100 in PBS and left overnight at 4° C. overnight to solubilize TF. […] IMUBIND Tissue Factor ELISA Kit (American Diagnostica Inc, Greenwich, Conn.) was used to determine TF concentration in each sample. The ELISA was carried out according to manufacturer's procedure.

[2] = tested on: Vascular Endothelial Growth Factor (VEGF) production by human prostate cancer cell line DU-145; assay: VEGF ELISA, DU-145; format: cell-based
MDA-MB-231 = assay: Emory Laboratory Cell Screen, Neutral Red, MDA-MB-231; format: cell-based, human; conditions: Homo sapiens, MDA-MB-231, Breast Cancer, 72 hours, read-out: Median Growth Inhibitory Concentration (GI50)
Method: as §1

[3] = tested on: Tissue Factor (TF) production by human breast cancer cell line MDA-MB-231; assay: TF ELISA, MDA-MB-231; format: cell-based; conditions: 0.5 μM
Method: (§3) IMUBIND Tissue Factor ELISA Kit (American Diagnostica Inc, Greenwich, Conn.) was used to determine TF concentration in each sample. The ELISA was carried out according to manufacturer's procedure.

RPMI 7951 = assay: Emory Laboratory Cell Screen, Neutral Red, RPMI 7951; format: cell-based, human; conditions: Homo sapiens, RPMI 7951, Melanoma, 72 hours, read-out: Median Growth Inhibitory Concentration (GI50)
Method: as §1

[4] = tested on: Vascular Endothelial Growth Factor (VEGF) production by human melanoma cell line RPMI-7951; assay: VEGF ELISA, RPMI-7951; conditions: for VEGF ELISA / VEGF: RPMI-7951; for VEGF ELISA: DMSO control 3713
Method: RPMI-795 1, MDA-MB-231 and MDA-MB-435 cell lines were cultured in MEM-alpha medium (GIBCO-BRL, Long Island, N.Y.) containing 10% fetal bovine serum (RPMI-7951, MDA-MB-231) or 5% FBS (MDA-MB-435) at 37° C. and under 5% CO2/95% air. […] The cells were cultured in 48 well plates in all of the experiments described.
A VEGF enzyme-linked immunosorbent assay (ELISA) was utilized to determine the effect of the compounds of the present invention on VEGF production of a variety of human cancer cell lines. For the VEGF assay, cells were plated at a concentration of 80,000 cells/well and cultured overnight. Compounds or vehicle (DMSO 0.1%) were then added and the plates were incubated for 72 hours. Supernatant was then collected from each well and frozen in a −80° C. freezer until needed. Cell viability was determined by Neutral Red Assay. VEGF ELISA Kit (R & D, Minneapolis, Minn.) was used to determine the amount of VEGF in the culture supernatants. The ELISA was carried out according to the manufacturer's procedure.

[5] = tested on: Vascular Endothelial Growth Factor (VEGF) production by human prostate cancer cell line PC-3; assay: VEGF ELISA, PC-3; format: cell-based
HUVECS = assay: Emory Laboratory Cell Screen, Neutral Red, HUVECS; format: cell-based, human; conditions: Homo sapiens, HUVEC, 72 hours, read-out: Median Growth Inhibitory Concentration (GI50)
Method: as §1

[6] = tested on: Human tumor and endothelial cell lines; assay: Emory Laboratory Cell Screen, mean over cell lines; format: cell-based; conditions: Homo sapiens, Endothelial cell; Mean over the Emory cell lines; 72 hours; read-out: Median Growth Inhibitory Concentration (GI50), Mean
Method: as §1

[7] = tested on: Tissue Factor (TF) production by human melanoma cell line RPMI-7951; assay: TF ELISA, RPMI-7951; format: cell-based
Method: as §3

[8] = tested on: Tissue Factor (TF) production by human prostate cancer cell line DU-145; assay: TF ELISA, DU-145; format: cell-based; conditions: 20 μM
Method: as §2

[9] = RPMI-7951, 72 h, read-out: Neutral Red Uptake, %
[10] = RPMI-7951, read-out: Cell Viability
[11] = Table 4, 20 μM, mean of triplicate and S.D.
[12] = Homo sapiens, RPMI-7951, 72 h, read-out: VEGF

O=C(C=Cc1ccccc1O)C=Cc1ccccc1O [EF2, 1,5-Bis(2-hydroxyphenyl)penta-1,4-dien-3-one]
GI50 (MDA-MB-435): 3300 nM
viability at 5 µM (RPMI-7951 human melanoma; [9]): 46%
viability at 20 µM (RPMI-7951 human melanoma; [9]): 7%
viability at 5 µM (RPMI-7951 human melanoma; [10]): 68%
viability at 20 µM (RPMI-7951 human melanoma; [10]): 42%
TF (% of DMSO) ([1]; DMSO = 100%): (36%)
TF ([1]; mean of triplicate and S.D., DMSO 203 ± 6): 73 ± 10 pg/mL
VEGF (% of DMSO) ([2]; 20 μM, DMSO = 100%): (40%)
VEGF ([2]; 20 μM, mean of triplicate and S.D., DMSO 18760 ± 2633): 7516 ± 1915 pg/mL
VEGF ([2]; Table 4, 20 μM, DMSO = 100): 40%
VEGF [2, 11]: 7516 ± 1915 pg/mL
GI50 (MDA-MB-231): 1500 nM
TF ([3]; DMSO = 100): 82%
TF ([3]; DMSO control 45753): 37697 pg/mL
GI50 (RPMI 7951): 800 nM
activity at 5 µM [4, 12]: 36%
activity at 20 µM [4, 12]: 0%
VEGF ELISA ([4]; 5 μM): 1295 pg/ml/well
VEGF ([4]; 5 μM, DMSO control 4197 (EF-25: 1045)): 1522 pg/mL
VEGF ELISA ([4]; 20 μM): 84 pg/ml/well
VEGF ([4]; 20 μM, DMSO control 4197): 0 pg/mL
VEGF (% of DMSO) ([5]; 20 μM, DMSO = 100%): (1%)
VEGF ([5]; 20 μM, mean of triplicate and S.D., DMSO 2103 ± 100): 26 ± 44 pg/mL
VEGF ([5]; Table 4, 20 μM, DMSO = 100): 1%
VEGF [5, 11]: 26 ± 44 pg/mL
GI50 (HUVECS): 1700 nM
GI50 [6]: 1800 nM
TF ([7]; 5 μM, DMSO = 100): 82%
TF ELISA ([7]; 5 μM, DMSO control 7054): 1009 pg/ml/well
TF ([7]; 20 μM, DMSO = 100): 14%
TF ([7]; Table 5, 5 μM, DMSO control 7054): 5780 pg/mL
TF ([7]; Table 5, 20 μM, DMSO control 7054): 1009 pg/mL
TF (% of DMSO) ([8]; DMSO = 100%): (72%)
TF ([8]; mean of triplicate and S.D., DMSO 7699 ± 406): 5540 ± 364 pg/mL
